Reference: US8143226B2, “Tyrosine kinase receptor antagonists and methods of treatment for breast cancer” (The Regents of the University of California, priority 2005, dated 2012)

Experiments:
HER2/neu [1] = target: T1, HER2/neu (Rattus norvegicus, UniProt P06494); test: HER2/neu autophosphorylation in MCNeuA cells (western blot); type: cell-based, mouse; details: read-out: IC50, ligand-independent tyrosine phosphorylation of HER2/neu
T1 construct: expressed in transfected cells; host or cells: MCNeuA mouse mammary carcinoma cells (MMTV/neu transgene), in culture or grown as tumours in neuTg mice
Procedure: HER2/neu receptor autophosphorylation was determined in serum-starved MCNeuA or SKBR3 cells, which were collected in the basal state, due to the ligand-independent nature of HER2/neu activation. Following a one-hour incubation in serum-free media, soluble extracts of cells were prepared as above. HER2/neu autophosphorylation was determined by a western blot that employed a phosphospecific antibody, pNeu(Tyr1248) as described above.

SH-SY5Y cells = test: Propidium iodide flow cytometry of apoptotic (sub-G0) SH-SY5Y cells; type: cell-based, human; details: SH-SY5Y cells in serum, 30-120 μM, 24 h
Procedure: Propidium iodide staining of apoptotic cells. SH-SY5Y cells were cultured in DMEM with 10% calf serum. […] The supernatant was collected to save detached cells. Attached cells were removed from the plate via trypsinization, and pelleted by centrifugation in combination with the cells in the supernatant. The cell pellet was fixed by drop-wise addition of cold 70% ethanol while vortexing, gently, and stored at 4° C. The pellet was washed twice and resuspended in PBS and stained with 1 μg/ml propidium iodide. Propidium iodide fluorescence was measured in 30,000 cells per sample using a Becton-Dickinson (Franklin Lakes, N.J.) Facscalibur flow cytometer. The percentage of cells in each stage of the cell cycle, as well as the percentage of cells that were apoptotic (sub-G0) was determined by analyzing the data with ModFit software. The experiment was repeated three times.

PDGF receptor = details: Domin et al. 1994; cited from earlier work
pancreatic cancer cells = test: Growth of pancreatic cancer cells in vitro; type: cell-based; details: FIG. 3
HER2/neu [2] = target: T1, HER2/neu; test: HER2/neu phosphorylation in excised MCNeuA tumors (western blot); type: in vivo, mouse; details: 37.5 mg/kg i.p. three times a week, 16 hours after final dose, vs vehicle
Procedure: Tumors were homogenized in 50 mM HEPES, pH 7.6, 150 mM NaCl, 1 mM PMSF, 2 μM leupeptin, 2 μM Pepstatin A, and 2 mM Na3VO4, and solubilized by the addition of 1% Triton x-100. Soluble lysates were prepared as described for cell culture studies. Tyrosine phosphorylation of IGF-1R was determined by ELISA as described for MCF-7 cells. Phosphorylation of HER2/neu was determined by western blot employing the phospho-specific antibody as in the cell culture studies. The degree of phosphorylation for each receptor was normalized to total receptor protein content in the tumor samples as determined by western blotting with antibodies against the human IGF-1R and the rodent HER2/neu.

caspase-3 = test: Caspase-3 cleavage in SH-SY5Y cells; type: cell-based, human; details: SH-SY5Y cells in serum, 6 h
Excerpt: Detection of Caspase-3 cleavage. […] Lysates were collected as described above, and the 14/17 kD cleavage fragments of caspase-3 were detected via SDS-PAGE followed by immunoblotting with anti-cleaved caspase-3 antibody.

IGF-1R = IGF-1R (Homo sapiens, UniProt P08069); test: IGF-1R phosphorylation ELISA in MCF-7/HER2-18 cells; type: cell-based; set-up: endogenous in cells; host or cells: MCF-7/HER2-18; details: 3 nM IGF-I 10 min
Procedure: RTK inhibitors were dissolved in DMSO and diluted with culture medium before being added to cells for 1.5 hour at 37° C. The final concentration of DMSO during the incubation was 0.3% . For some studies, cells were also stimulated with 3 nM IGF-I for 10 minutes at 37° C. Reactions were terminated by rapidly aspirating medium and washing cells three times with ice cold PBS. Cells were harvested and solubilized in 50 mM HEPES, 150 mM NaCl, 1% Triton X-100, 1 mM PMSF, and 2 mM vanadate for 1 hour at 4° C. Protein concentrations were determined by BCA assay (Pierce, Rockford, Ill.). […] Briefly, 10 μg lysate protein were added to triplicate wells in a 96-well plate coated with monoclonal antibody to the IGF-IR (IR3; 2 μg/ml), and incubated for 18 hours at 4° C. Plates were washed five times and then HRP-conjugated anti-phosphotyrosine antibody (0.3 μg/ml), diluted in Solution B (50 mM HEPES, pH 7.6, 150 mM NaCl, 0.05% Tween-20, 1 mM PMSF, 2 mM vanadate and 1 mg/ml bacitracin), was added for two hours at 22° C. Plates were washed five times prior to color development with TMB substrate, which was terminated with 1.0 M H3PO4. Values for receptor phosphorylation were determined by measuring absorbance at 450 nm.

SH-SY5Y and SHEP cells = test: IGF-I stimulated motility of neuroblastoma cells on gold particle-coated coverslips; type: cell-based, human; details: 30 μM NDGA, 1 nM IGF-I, 6 h
Procedure: Measurement of cell motility. Neuroblastoma cells were plated on gold particle-coated coverslips (prepared as described in (30)) in serum-free media at a density of 25,000 cells per coverslip. The cells were incubated for 2 h to allow adhesion to the coverslip. […] 1 nM IGF-I was then added to some wells. Incubation continued for 6 h, followed by fixation with 3.5% glutaraldehyde. Coverslips were mounted on glass slides, then viewed on a Lietz Orthoplan inverted microscope attached to a Sony videoprocessor. Digital images of the tracks etched into the gold by the cells from 3 separately treated coverslips per condition were collected at 200× magnification using Adobe Photoshop software. For each condition, the areas of 120 tracks made by individual cells were measured with NIH Image 1.61 software.

T1 sequence (P06494 23-1257): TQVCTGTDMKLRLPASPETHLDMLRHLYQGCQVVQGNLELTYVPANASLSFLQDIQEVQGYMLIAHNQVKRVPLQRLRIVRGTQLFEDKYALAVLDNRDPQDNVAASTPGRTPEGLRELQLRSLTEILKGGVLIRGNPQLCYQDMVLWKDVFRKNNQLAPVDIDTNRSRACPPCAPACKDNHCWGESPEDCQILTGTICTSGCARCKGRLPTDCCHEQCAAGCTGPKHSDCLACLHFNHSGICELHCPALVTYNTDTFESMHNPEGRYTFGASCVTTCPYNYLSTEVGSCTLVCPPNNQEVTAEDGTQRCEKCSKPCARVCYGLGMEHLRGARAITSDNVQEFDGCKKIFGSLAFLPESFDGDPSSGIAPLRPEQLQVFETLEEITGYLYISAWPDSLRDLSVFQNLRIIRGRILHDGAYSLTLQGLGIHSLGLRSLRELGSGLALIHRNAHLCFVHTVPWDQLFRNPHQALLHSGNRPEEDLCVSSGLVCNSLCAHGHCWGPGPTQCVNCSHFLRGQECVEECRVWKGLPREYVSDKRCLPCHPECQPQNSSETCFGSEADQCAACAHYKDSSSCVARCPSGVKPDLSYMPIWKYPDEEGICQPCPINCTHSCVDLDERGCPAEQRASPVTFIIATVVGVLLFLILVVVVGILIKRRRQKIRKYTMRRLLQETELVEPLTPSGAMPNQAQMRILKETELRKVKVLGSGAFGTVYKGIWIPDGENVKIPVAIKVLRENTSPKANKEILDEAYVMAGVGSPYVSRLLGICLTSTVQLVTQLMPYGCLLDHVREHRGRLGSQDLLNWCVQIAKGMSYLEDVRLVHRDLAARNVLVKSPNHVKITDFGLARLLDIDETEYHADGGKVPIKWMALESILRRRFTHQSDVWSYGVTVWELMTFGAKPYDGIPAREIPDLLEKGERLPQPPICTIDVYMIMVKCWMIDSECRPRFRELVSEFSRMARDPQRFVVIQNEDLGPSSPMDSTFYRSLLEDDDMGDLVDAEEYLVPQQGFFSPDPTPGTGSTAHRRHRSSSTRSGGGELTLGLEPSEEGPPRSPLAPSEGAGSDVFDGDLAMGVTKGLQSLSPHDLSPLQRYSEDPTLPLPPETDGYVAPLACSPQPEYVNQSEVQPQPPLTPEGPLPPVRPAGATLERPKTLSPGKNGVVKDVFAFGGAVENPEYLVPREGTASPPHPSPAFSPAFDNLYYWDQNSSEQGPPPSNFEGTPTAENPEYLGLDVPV
IGF-1R, sequence (P08069 31-1367): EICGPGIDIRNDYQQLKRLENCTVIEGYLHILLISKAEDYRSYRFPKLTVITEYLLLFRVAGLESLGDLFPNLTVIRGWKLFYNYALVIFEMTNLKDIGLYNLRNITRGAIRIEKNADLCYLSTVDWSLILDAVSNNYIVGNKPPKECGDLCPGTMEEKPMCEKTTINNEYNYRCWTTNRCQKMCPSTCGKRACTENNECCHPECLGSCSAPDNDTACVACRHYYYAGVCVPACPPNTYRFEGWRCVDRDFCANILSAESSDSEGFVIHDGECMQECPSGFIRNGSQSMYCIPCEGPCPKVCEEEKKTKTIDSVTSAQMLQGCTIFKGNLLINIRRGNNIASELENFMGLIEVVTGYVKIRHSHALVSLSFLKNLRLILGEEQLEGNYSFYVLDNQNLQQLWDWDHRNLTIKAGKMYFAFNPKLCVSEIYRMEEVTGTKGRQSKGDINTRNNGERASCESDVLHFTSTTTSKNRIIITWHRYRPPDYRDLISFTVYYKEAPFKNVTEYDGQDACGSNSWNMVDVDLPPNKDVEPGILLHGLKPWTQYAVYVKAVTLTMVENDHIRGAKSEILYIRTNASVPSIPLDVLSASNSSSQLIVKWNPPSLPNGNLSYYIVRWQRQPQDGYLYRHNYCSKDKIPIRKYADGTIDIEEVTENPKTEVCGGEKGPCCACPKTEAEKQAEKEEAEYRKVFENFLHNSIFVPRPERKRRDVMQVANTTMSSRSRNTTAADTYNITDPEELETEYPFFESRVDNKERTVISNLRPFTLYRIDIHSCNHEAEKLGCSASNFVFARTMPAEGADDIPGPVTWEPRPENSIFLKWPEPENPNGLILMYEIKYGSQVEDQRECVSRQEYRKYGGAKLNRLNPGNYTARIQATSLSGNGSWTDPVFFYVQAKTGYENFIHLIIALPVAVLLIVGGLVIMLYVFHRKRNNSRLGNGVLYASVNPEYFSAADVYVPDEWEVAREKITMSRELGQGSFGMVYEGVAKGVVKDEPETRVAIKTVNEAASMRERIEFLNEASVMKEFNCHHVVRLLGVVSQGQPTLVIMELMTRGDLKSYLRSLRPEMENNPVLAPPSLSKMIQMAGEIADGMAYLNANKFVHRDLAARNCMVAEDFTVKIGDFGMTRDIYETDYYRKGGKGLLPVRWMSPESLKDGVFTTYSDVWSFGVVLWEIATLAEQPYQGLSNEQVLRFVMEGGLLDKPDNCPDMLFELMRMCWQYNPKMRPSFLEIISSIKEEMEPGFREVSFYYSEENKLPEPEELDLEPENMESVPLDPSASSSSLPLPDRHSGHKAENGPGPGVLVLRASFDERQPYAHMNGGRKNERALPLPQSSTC

CC(Cc1ccc(O)c(O)c1)C(C)Cc1ccc(O)c(O)c1 (centres unmarked) [NDGA, nordihydroguaiaretic acid]
IC50 (HER2/neu [1]): 15 ± 4 µM | percentage of sub-G0 cells (SH-SY5Y cells): dramatic, dose-dependent increase | activation of the PDGF receptor (PDGF receptor): inhibits | growth of pancreatic cancer cells in vitro (pancreatic cancer cells): inhibiting | HER2/neu receptor autophosphorylation in tumors (HER2/neu [2]): reduced | caspase-3 activation (caspase-3): dose-dependent caspase-3 activation | IGF-1 stimulated phosphorylation of the IGF-1R (IGF-1R): strongly inhibited | IGF-I induced increase in motility (SH-SY5Y and SHEP cells): strongly suppressed
